From ChEMBL document CHEMBL4725438, “Chiral Analogues of PFI-1 as BET Inhibitors and Their Functional Role in Myeloid Malignancies” (ACS Med Chem Lett, 2020) come the findings set out here.

The subject of data set [1] is HEL. In words: Inhibition of BET in human HEL cells harboring JAK2 V617F mutant assessed as decrease in AURKB protein expression at 5 uM measured after 24 to 48 hrs by Western blot analysis. Format: cell-based. Particulars: time hrs 24-48. Background: A western blot detects proteins with antibodies after separation by electrophoresis.
In data set [2] the target is Bromodomain-containing protein 4 (Homo sapiens) (UniProt O60885). In words: Inhibition of BRD4 in human MOLM-14 cells harboring FLT3-ITD mutant assessed as cell cycle arrest by measuring increase in cell population at G0/G1 phase at 1 to 5 uM measured after 24 hrs by propidium iodide staining based FACS analysis. Particulars: dose microM 1-5, time 24.0 hrs. In general terms: Flow cytometry measures light scatter and fluorescence of single cells or particles in a stream.

Data set [3] concerns MOLM-14. In words: Inhibition of BET in human MOLM-14 cells harboring FLT3-ITD mutant assessed as increase in HEXIM1 protein expression at 5 uM preincubated in medium for 24 to 48 hrs followed by cell addition and measured after 24 hrs by Western blot analysis. Format: cell-based. Particulars: time 96.0 hrs.
Data set [4] has as its system K562. In words: Induction of apoptosis in human K562 cells harboring BCR-ABL assessed as cleavage of PARP-1 at 5 uM measured after 24 to 48 hrs by Western blot analysis. Format: functional, cell-based. Particulars: time hrs 24-48.
Data set [5] deals with Bromodomain-containing protein 4 (Homo sapiens) (UniProt O60885). In words: Inhibition of BRD4 in human HEL cells harboring JAK2 V617F mutant assessed as cell cycle arrest by measuring increase in cell population at sub-G1 phase at 1 to 5 uM measured after 24 hrs by propidium iodide staining based FACS analysis. Particulars: dose microM 1-5, time 24.0 hrs.
Data set [6] has as its target Bromodomain-containing protein 2 (Homo sapiens) (UniProt P25440). In words: Binding affinity to N-terminal His-tagged human recombinant BRD2 bromodomain 1 (71 to 194 residues) expressed in Escherichia coli assessed as change in melting temperature at 10 uM by BromoMELT assay.
In data set [7] the target is Bromodomain-containing protein 4 (Homo sapiens) (UniProt O60885). In words: Inhibition of BRD4 in human HEL cells harboring JAK2 V617F mutant assessed as cell viability at 5 uM measured after 72 hrs by tryphan blue staining based assay relative to control.
Data set [8] has the same target. In words: Inhibition of BRD4 in human HEL cells harboring JAK2 V617F mutant assessed as cell cycle arrest by measuring increase in cell population at G0/G1 phase at 1 to 5 uM measured after 24 hrs by propidium iodide staining based FACS analysis. Particulars: dose microM 1-5, time 24.0 hrs.
Data set [9] has the same target. In words: Inhibition of BRD4 in human HEL cells harboring JAK2 V617F mutant assessed as reduction in cell proliferation at 1 to 5 uM after 72 hrs by tryphan blue staining based assay. Particulars: dose microM 1-5, time 72.0 hrs.
The target is the same in data set [10]. In words: Inhibition of BRD4 in human HEL cells harboring JAK2 V617F mutant assessed as metabolic activity at 1 uM measured after 72 hrs by MTT assay relative to control. Format: cell-based. More on the design: Activity: scale not given: the % may be the effect or the level left. (In general: Tetrazolium dyes change colour on reduction, which living cells bring about.)

Data set [11] shares this target. In words: Inhibition of BRD4 in human MOLM-14 cells harboring FLT3-ITD mutant assessed as reduction in cell proliferation at 1 to 5 uM after 72 hrs by tryphan blue staining based assay. Particulars: dose microM 1-5, time 72.0 hrs.
The target is the same in data set [12]. In words: Inhibition of BRD4 in human HEL cells harboring JAK2 V617F mutant assessed as cell cycle arrest by measuring decrease in cell population at S phase at 1 to 5 uM measured after 24 hrs by propidium iodide staining based FACS analysis. Particulars: dose microM 1-5, time 24.0 hrs.
The subject of data set [13] is K562. In words: Inhibition of BET in human K562 cells harboring BCR-ABL assessed as increase in HEXIM1 protein expression at 5 uM measured after 24 to 48 hrs by Western blot analysis. Format: cell-based. Particulars: time hrs 24-48.
Data set [14] deals with MOLM-14. In words: Inhibition of BET in human MOLM-14 cells harboring FLT3-ITD mutant assessed as increase in HEXIM1 protein expression at 5 uM measured after 24 hrs by Western blot analysis. Format: cell-based.
For data set [15], the system named is HEL. In words: Inhibition of BET in human HEL cells harboring JAK2 V617F mutant assessed as increase in HEXIM1 protein expression at 5 uM measured after 24 hrs by Western blot analysis. Format: cell-based.
Data set [16] relates to BMMC. In words: Anticlonogenic activity against AML patient derived BMMC harboring FLT3-ITD/FLT3-TKD mutant assessed as reduction in colony formation at 1 to 5 uM measured after 7 to 11 days. Format: functional, tissue-based. Particulars: Homo sapiens, dose microM 1-5, time day 7-11.
Data set [17] concerns the target Bromodomain-containing protein 4 (Homo sapiens) (UniProt O60885). In words: Inhibition of BRD4 in human K562 cells harboring BCR-ABL assessed as reduction in cell proliferation at 1 to 5 uM after 72 hrs by tryphan blue staining based assay. Particulars: dose microM 1-5, time 72.0 hrs.
The test system of data set [18] is MOLM-14. In words: Inhibition of BET in human MOLM-14 cells harboring FLT3-ITD mutant assessed as decrease in AURKB protein expression at 5 uM measured after 24 to 48 hrs by Western blot analysis. Particulars: time hrs 24-48. Format: cell-based.
Data set [19] is described as follows: Cytotoxicity against human PBMC assessed as reduction in colony formation at 1 to 5 uM measured after 7 to 11 days. Format: tissue-based. Particulars: dose 1-5 µM, time 7-11 day.
Data set [20] addresses Bromodomain-containing protein 4 (Homo sapiens) (UniProt O60885). In words: Inhibition of BRD4 in human K562 cells harboring BCR-ABL assessed as decrease in metabolic activity at 0.01 to 20 uM measured after 72 hrs by MTT assay. Format: cell-based. Particulars: dose microM 0.01-20, time 72.0 hrs.
Data set [21] in a line: Cytotoxicity against human CD34+ cells assessed as reduction in colony formation at 1 to 5 uM measured after 7 to 11 days. Format: cell-based. Particulars: cd34-positive (myeloid/lymphoid) cell, dose 1-5 µM, time 7-11 day.
Data set [22] concerns MOLM-14. In words: Induction of apoptosis in human MOLM-14 cells harboring FLT3-ITD mutant assessed as cleavage of PARP-1 at 5 uM measured after 24 to 48 hrs by Western blot analysis. Format: functional, cell-based. Particulars: time hrs 24-48.
Data set [23] has as its system HEL. In words: Inhibition of BET in human HEL cells harboring JAK2 V617F mutant assessed as increase in HEXIM1 protein expression at 5 uM preincubated in medium for 24 to 48 hrs followed by cell addition and measured after 24 hrs by Western blot analysis. Particulars: time 96.0 hrs. Format: cell-based.
The target in data set [24] is Bromodomain-containing protein 4 (Homo sapiens) (UniProt O60885). In words: Inhibition of BRD4 in human MOLM-14 cells harboring FLT3-ITD mutant assessed as cell cycle arrest by measuring decrease in cell population at S phase at 1 to 5 uM measured after 24 hrs by propidium iodide staining based FACS analysis. Particulars: dose microM 1-5, time 24.0 hrs.
Data set [25] concerns HEL. In words: Induction of apoptosis in human HEL cells harboring JAK2 V617F mutant assessed as cleavage of PARP-1 at 5 uM measured after 24 to 48 hrs by Western blot analysis. Format: functional, cell-based. Particulars: time hrs 24-48.
In data set [26] the target is Bromodomain-containing protein 4 (Homo sapiens) (UniProt O60885). In words: Inhibition of BRD4 in human MOLM-14 cells harboring FLT3-ITD mutant assessed as metabolic activity at 1 uM measured after 72 hrs by MTT assay relative to control. Further details: scale not given: the % may be the effect or the level left. Format: cell-based.
Data set [27] has the same target. In words: Inhibition of BRD4 in human MOLM-14 cells harboring FLT3-ITD mutant assessed as cell cycle arrest by measuring increase in cell population at sub-G1 phase at 1 to 5 uM measured after 24 hrs by propidium iodide staining based FACS analysis. Particulars: dose microM 1-5, time 24.0 hrs.
The target is the same in data set [28]. In words: Binding affinity to N-terminal His-tagged human recombinant BRD4 bromodomain 1 (44-170 residues) expressed in Escherichia coli assessed as change in melting temperature at 10 uM by BromoMELT assay.
The test system of data set [29] is K562. In words: Inhibition of BET in human K562 cells harboring BCR-ABL assessed as increase in HEXIM1 protein expression at 5 uM preincubated in medium for 24 to 48 hrs followed by cell addition and measured after 24 hrs by Western blot analysis. Particulars: time 96.0 hrs. Format: cell-based.
The target of data set [30] is Bromodomain-containing protein 4 (Homo sapiens) (UniProt O60885). In words: Inhibition of BRD4 in human MOLM-14 cells harboring FLT3-ITD mutant assessed as cell viability at 5 uM measured after 72 hrs by tryphan blue staining based assay relative to control.
For data set [31], the system named is K562. In words: Inhibition of BET in human K562 cells harboring BCR-ABL assessed as decrease in AURKB protein expression at 5 uM measured after 48 hrs by Western blot analysis. Format: cell-based.
Data set [32] relates to MOLM-14. In words: Inhibition of BET in human MOLM-14 cells harboring FLT3-ITD mutant assessed as increase in HEXIM1 protein expression at 5 uM measured after 24 to 48 hrs by Western blot analysis. Particulars: time hrs 24-48. Format: cell-based.
The subject of data set [33] is MOLM-14. In words: Inhibition of BET in human MOLM-14 cells harboring FLT3-ITD mutant assessed as decrease in AURKB protein expression at 5 uM measured after 48 hrs by Western blot analysis. Format: cell-based.
In data set [34] the test system is HEL. In words: Inhibition of BET in human HEL cells harboring JAK2 V617F mutant assessed as increase in HEXIM1 protein expression at 5 uM measured after 24 to 48 hrs by Western blot analysis. Particulars: time hrs 24-48. Format: cell-based.
The target in data set [35] is Bromodomain-containing protein 4 (Homo sapiens) (UniProt O60885). In words: Inhibition of BRD4 in human HEL cells harboring JAK2 V617F mutant assessed as decrease in metabolic activity at 10 uM measured after 72 hrs by MTT assay. Format: cell-based.
Data set [36] shares this target. In words: Inhibition of BRD4 in human K562 cells harboring BCR-ABL assessed as decrease in metabolic activity at 10 uM measured after 72 hrs by MTT assay. Format: cell-based.
Data set [37] has the same target. In words: Inhibition of BRD4 in human MOLM-14 cells harboring FLT3-ITD mutant assessed as decrease in metabolic activity at 10 uM measured after 72 hrs by MTT assay. Format: cell-based.

Calls of active or inactive are those of the source. The rule behind the calls is not given here.

Bromodomain-containing protein 2 (Homo sapiens), sequence (P25440 whole entry, looked up, the tested form may be a part): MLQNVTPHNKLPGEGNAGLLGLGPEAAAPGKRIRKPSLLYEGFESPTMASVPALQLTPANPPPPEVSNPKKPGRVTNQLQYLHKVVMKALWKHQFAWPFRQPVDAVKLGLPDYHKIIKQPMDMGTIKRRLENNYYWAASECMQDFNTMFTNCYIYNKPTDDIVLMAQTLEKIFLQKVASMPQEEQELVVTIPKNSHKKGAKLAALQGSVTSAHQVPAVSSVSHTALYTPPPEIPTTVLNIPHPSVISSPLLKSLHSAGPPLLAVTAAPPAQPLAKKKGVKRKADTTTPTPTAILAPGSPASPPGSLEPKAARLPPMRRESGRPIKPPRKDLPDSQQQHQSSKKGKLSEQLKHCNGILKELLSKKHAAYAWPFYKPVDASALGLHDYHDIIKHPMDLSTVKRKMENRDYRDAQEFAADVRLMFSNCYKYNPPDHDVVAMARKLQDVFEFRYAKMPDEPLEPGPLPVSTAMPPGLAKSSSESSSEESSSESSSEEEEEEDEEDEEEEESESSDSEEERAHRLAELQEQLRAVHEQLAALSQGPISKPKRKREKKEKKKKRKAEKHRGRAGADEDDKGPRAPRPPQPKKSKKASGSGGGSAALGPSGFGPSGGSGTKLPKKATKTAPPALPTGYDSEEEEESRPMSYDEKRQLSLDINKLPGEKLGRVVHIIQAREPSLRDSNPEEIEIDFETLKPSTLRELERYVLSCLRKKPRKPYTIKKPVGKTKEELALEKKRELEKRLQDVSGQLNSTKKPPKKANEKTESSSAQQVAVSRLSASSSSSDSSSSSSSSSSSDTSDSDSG

Take `CN1Cc2cc(N=[S@@](C)(=O)c3ccccc3)ccc2NC1=O`: the inhibition result in [1], in [2], in data set [3], in data set [5], in data set [8] and in data set [9] was “Active” throughout. Further, the inhibition entry in [11], in data set [12], in data set [13], in data set [14], in data set [15] and in data set [17] was “Active” in each case. Besides, the inhibition entry in data set [18], in data set [23], in data set [24], in data set [27] and in data set [29] was “Active” in each case. Further, the result in data set [4] was inactive. The ΔTm was 3.5 °C in data set [6] and 5 °C in data set [28]. In addition, the Activity is 55% in data set [7]; 37% in data set [10]; “Toxic” in data set [19]; “Toxic” in data set [21]; 55% in [26]; 57% in data set [30]. Further, the outcome in [16], in [22] and in data set [25] was Active. In addition, the inhibition result in data set [20] is “inactive”.

Turning to `CN1Cc2cc(N=[S@](C)(=O)c3ccccc3)ccc2NC1=O`, the inhibition entry in [31] and in data set [33] was “Active” each time. Besides, the inhibition result in data set [32], in [10] and in [34] was “inactive” each time. The outcome in [22] and in [25] was inactive.

With `CN1Cc2cc(N=S(C)(=Nc3ccccc3)c3ccccc3)ccc2NC1=O` (stereo unspecified), the inhibition entry in data set [35] and in [37] was “Active” each time. Besides, the inhibition entry in data set [36] was “inactive”.

For `CN=S(C)(=Nc1ccc2c(c1)CN(C)C(=O)N2)c1ccccc1` (stereo unspecified), the inhibition result in [35] and in [37] was “Active” in each case. Besides, in [36], the inhibition entry is “inactive”.

Take `COc1ccccc1S(C)(=O)=Nc1ccc2c(c1)CN(C)C(=O)N2` (stereo unspecified): the inhibition entry in data set [35] and in data set [37] was “Active” each time. In addition, the inhibition result in data set [36] was “inactive”.

For the molecule `CN1Cc2cc(N=S(C)(=N)c3ccccc3)ccc2NC1=O` (stereo unspecified), the inhibition entry in [35] and in [37] was “Active” each time. For the same molecule, the inhibition result in [36] was “inactive”.

As for `COc1ccccc1S(=O)(=O)Nc1ccc2c(c1)CN(C)C(=O)N2`, in data set [6], the ΔTm came to 3.5 °C. Besides, the inhibition result in data set [13], in [14] and in [15] was “Active” throughout. In data set [16], the outcome was Active. For the same molecule, the Activity entry in [19] and in [21] was “Toxic” each time.

For orientation: ΔTm means the shift of the melting midpoint relative to a reference.
